One experiment has as its target T1, intracellular Flag-PRL-2 (Homo sapiens, UniProt Q12974).
T1 construct: expressed in transfected cells; host or cells: NIH3T3
T1 sequence (Q12974 1-167): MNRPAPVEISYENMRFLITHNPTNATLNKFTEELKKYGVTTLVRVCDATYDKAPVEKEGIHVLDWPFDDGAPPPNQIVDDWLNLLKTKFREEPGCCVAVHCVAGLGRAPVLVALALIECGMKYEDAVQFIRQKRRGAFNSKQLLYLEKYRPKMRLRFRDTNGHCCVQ
Briefly: PTPase activity of anti-Flag immunocomplexes from NIH3T3 transfectants. The experiment is classed as cell-based. How it is done:
(§1) An expression construct of Flag-tagged PRL-1 or control vector was transfected into NIH3T3 cells which were then treated without or with sodium stibogluconate and used for immunoprecipitation assays with a monoclonal anti-Flag antibody. The immunocomplexes were analyzed by SDS-PAGE/Western blotting and PTPase assays. A Flag-tagged protein with a molecular weight approximately 22 kDa as expected for Flag-PRL-1 was detected in the immunocomplexes from untreated or sodium stibogluconate -treated Flag-PRL-1 transfectants but not in those from the control cells (FIG. 6A).
Flag-PRL-2 transfectants were briefly treated with sodium stibogluconate for 5 minutes, washed to remove cell-free drug and then incubated for various times prior to termination by cell lysis. Anti-Flag immunocomplexes from the cells were analyzed by SDS-PAGE/Western blotting and PTPase assays. The amounts of Flag-PRL-2 proteins in the immunocomplexes were at similar levels as quantified by probing with an anti-Flag antibody. […] PTPase activity of the immunocomplexes from cells incubated for 24 hours was 78% of the untreated cells.
Glucatime-induced inactivation of intracellular PRL-2 lasts more than 24 hours. NIH3T3 stable transfectant of Flag-tagged PRL-2 was treated with glucatime for 5 minutes, washed to remove cell free drug and then incubated for various times prior to termination by lysing the cells in lysis buffer. Flag-tagged PRL-2 was immunoprecipitated from the cell lysates using a monoclonal anti-Flag antibody. The amounts of Flag-tagged PRL-2 in the immunocomplexes were quantified by SDS-PAGE/Western blotting with the anti-Flag antibody (A). Activities of the immunocomplexes in dephosphorylating a synthetic phosphotyrosine peptide were determined by in vitro PTPase assays (B).

The next experiment deals with T2, GST/SHP-1 fusion protein (Mus musculus, UniProt P29351).
T2 construct: made in house
As to the kind of experiment: Reversibility of SHP-1 inhibition (washing of bead-bound GST/SHP-1). The settings on record: preincubated with inhibitor, then washed. The experiment is classed as biochemical. From the text: The beads were then washed 3 times in Tris buffer or without washing prior to in vitro PTPase assays.

Experiment [1] has as its target T3, PTP1B (GST fusion protein) (Homo sapiens, UniProt P18031).
T3 construct: purchased Upstate Biotechnology Inc. (UBI, Lake Placid, N.Y.)
As to the kind of experiment: In vitro PTPase assay, dephosphorylation of a synthetic phosphotyrosine peptide. The experiment is classed as biochemical. How it is done: (§2) In vitro PTPase activities were measured using the commercial protein tyrosine phosphatase assay kit (UBI) following established procedure. […] 100 μl of Malachite Green solution was added and incubated for 5 minutes, and the absorbance at 660 nm was measured after 5 minutes.

The target in a further experiment is T4, intracellular Flag-PRL-3 (Homo sapiens, UniProt O75365).
T4 construct: expressed in transfected cells; host or cells: NIH3T3
As to the kind of experiment: PTPase activity of anti-Flag immunocomplexes from NIH3T3 transfectants. The experiment is classed as cell-based. The settings on record: treated 5 min. The procedure: as §1
(§3) Glucatime inactivates intracellular PRL phosphatases. NIH3T3 stable transfectants of Flag-tagged PRL-1 (A), PRL-2 (B) and PRL-3 (C) were untreated or treated with glucatime for 5 minutes and then washed to remove cell free drug. The Flag-tagged PRLs were immunoprecipitated from the cells using a monoclonal anti-Flag antibody. The amounts of Flag-tagged PRLs in the immunocomplexes were quantified by SDS-PAGE/Western blotting with the anti-Flag antibody (the top panel). Activities of the immunocomplexes in dephosphorylating a synthetic phosphotyrosine peptide were determined by in vitro PTPase assays (the low panel).

The next experiment addresses T5, intracellular Flag-PRL-1 (Homo sapiens, UniProt Q93096).
T5 construct: expressed in transfected cells; host or cells: NIH3T3
The description is as above. The experiment is classed as cell-based. The conditions noted are these: treated 5 min. The procedure: as §1, §3

The next experiment has as its target T6, intracellular PTP1B (Mus musculus, UniProt P35821).
T6 construct: endogenous in cells; host or cells: NIH3T3
As to the kind of experiment: PTPase activity of anti-PTP1B immunocomplexes from NIH3T3 cells. The experiment is classed as cell-based. The conditions noted are these: treated 5 minutes. The procedure:
NIH3T3 cells were untreated or treated with glucatime for 5 minutes. PTP1B protein was immunoprecipitated from the cells using an anti-PTP1B antibody. The amounts of PTP1B in the immunocomplexes were quantified by SDS-PAGE/Western blotting with the anti-PTP1B antibody (A). Activities of the immunocomplexes in dephosphorylating a synthetic phosphotyrosine peptide were determined by in vitro PTPase assays (B).

The target of the next experiment is T7, recombinant PRL-1 (Homo sapiens, UniProt Q93096).
T7 construct: made in house; host or cells: E. coli DH5α
As to the kind of experiment: In vitro PTPase assay with recombinant PRL. The experiment is classed as biochemical. The conditions noted are these: peptide substrate. The procedure:
as §2
(§4) Recombinant GST fusion proteins of human PRL-1, 2 and 3 phosphatases were purified with glutathione beads from DH5α bacteria transformed by pGEX vectors containing cDNA fragments encoding the human PRLs which were generated by RT-PCR from H9 cells and confirmed by sequence analysis. Activities of the purified recombinant PRL proteins in dephosphorylating DiFMUP in the absence or presence of various inhibitors were measured following established procedure.
(§5) To assess whether sodium stibogluconate is an inhibitor of oncogenic PRL phosphatases, its effects on the PTPase activity of recombinant PRLs were evaluated by in vitro PTPase assays.

In the next experiment the target is T8, recombinant PRL-2 (Homo sapiens, UniProt Q12974).
T8 construct: made in house; host or cells: E. coli DH5α
T8 sequence (Q12974 1-167): T1 sequence (Q12974 1-167)
As to the kind of experiment: In vitro PTPase assay with recombinant PRL. The experiment is classed as biochemical. The procedure:
as §2, §4, §5

The subject of experiment [2] is human cancer cell lines (A549, DR, HEY, MDA231, SK-N-SH, WM9). As to the kind of experiment: Growth of human cancer cell lines with glucatime and/or IFNα (MTT, 6 days). The experiment is classed as cell-based. The procedure:
Growth of human cancer cell lines cultured in the absence or presence of glucatime and/or IFNα (500 U/ml) for 6 days were determined by MTT assays. These cell lines were of different human malignancies, including lung cancer (A549), lymphoma (DR), ovarian cancer (HEY), breast cancer (MDA231, or MDA), neuroblastoma (SK-N-SH, or SK) and melanoma (WM9).

A further experiment addresses T9, recombinant PRL-3 (Homo sapiens, UniProt O75365).
T9 construct: made in house; host or cells: E. coli DH5α
Briefly: In vitro PTPase assay with recombinant PRL (peptide or DiFMUP substrate). The conditions noted are these: peptide substrate. The experiment is classed as biochemical. How it is done: as §2, §4, §5

T4 sequence (O75365 whole entry): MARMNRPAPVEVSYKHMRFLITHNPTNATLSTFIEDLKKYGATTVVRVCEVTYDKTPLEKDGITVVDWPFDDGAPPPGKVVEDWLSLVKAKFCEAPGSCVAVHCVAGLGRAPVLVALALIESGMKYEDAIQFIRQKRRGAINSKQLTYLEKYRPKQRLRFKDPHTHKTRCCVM
T9 sequence (O75365 whole entry): as above
T7 sequence (Q93096 whole entry): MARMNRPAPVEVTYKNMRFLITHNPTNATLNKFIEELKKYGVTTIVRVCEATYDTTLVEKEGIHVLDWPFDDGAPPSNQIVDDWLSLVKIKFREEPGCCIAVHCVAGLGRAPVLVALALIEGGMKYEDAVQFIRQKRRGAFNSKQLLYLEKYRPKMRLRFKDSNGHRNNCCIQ
T5 sequence (Q93096 whole entry): as above
T6 sequence (P35821 whole entry): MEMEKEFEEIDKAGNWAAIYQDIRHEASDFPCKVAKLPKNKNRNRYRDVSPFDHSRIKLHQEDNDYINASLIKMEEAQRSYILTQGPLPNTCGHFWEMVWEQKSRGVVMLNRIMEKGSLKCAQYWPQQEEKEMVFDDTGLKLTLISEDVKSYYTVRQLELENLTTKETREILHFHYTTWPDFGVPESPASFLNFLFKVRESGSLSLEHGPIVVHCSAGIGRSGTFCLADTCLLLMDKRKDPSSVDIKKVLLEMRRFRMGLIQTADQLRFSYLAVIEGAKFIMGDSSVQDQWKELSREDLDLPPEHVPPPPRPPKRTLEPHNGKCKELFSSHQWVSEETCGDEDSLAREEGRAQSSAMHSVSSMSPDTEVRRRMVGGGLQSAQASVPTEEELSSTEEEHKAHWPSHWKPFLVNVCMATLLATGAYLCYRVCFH
T3 sequence (P18031 whole entry, species assumed, the tested form may be a part): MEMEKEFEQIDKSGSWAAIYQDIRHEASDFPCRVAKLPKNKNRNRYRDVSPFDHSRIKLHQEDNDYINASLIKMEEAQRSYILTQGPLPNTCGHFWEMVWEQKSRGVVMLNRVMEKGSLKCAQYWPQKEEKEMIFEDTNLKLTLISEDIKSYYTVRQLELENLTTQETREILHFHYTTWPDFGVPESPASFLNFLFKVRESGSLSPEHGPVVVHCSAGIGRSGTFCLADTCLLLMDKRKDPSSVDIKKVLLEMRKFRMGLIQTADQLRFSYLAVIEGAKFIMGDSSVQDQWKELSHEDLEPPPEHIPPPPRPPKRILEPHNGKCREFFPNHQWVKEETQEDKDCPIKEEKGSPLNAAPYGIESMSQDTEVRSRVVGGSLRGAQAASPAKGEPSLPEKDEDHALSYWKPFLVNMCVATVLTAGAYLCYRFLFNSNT
T2 sequence (P29351 whole entry, the tested form may be a part): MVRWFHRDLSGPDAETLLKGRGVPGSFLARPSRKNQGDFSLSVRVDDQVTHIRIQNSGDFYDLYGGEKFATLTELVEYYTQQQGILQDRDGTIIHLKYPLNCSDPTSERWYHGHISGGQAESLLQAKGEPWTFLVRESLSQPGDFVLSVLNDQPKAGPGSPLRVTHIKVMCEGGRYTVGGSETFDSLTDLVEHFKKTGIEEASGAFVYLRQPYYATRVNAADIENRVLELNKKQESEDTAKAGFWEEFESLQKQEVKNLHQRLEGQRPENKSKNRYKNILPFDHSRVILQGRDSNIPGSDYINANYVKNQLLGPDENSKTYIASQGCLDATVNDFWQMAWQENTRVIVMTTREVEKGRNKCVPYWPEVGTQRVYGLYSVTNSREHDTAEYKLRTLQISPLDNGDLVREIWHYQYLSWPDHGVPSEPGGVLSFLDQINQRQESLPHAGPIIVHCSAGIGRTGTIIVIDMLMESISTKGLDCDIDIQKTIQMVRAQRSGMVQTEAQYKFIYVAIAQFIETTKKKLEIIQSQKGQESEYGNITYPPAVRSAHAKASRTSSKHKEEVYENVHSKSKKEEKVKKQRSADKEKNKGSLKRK

With `CNC[C@H](O)[C@@H](O)[C@H](O)[C@H](O)CO.[O]=[Sb]([OH])([OH])[OH]` [glucatime, meglumine antimonate], the “PTPase activity of Flag-PRL-2 immunocomplexes from treated transfectants” value on intracellular Flag-PRL-2 (treated 5 min) is listed as “inactivates”. Also, the “duration of intracellular PRL-2 inactivation” value on intracellular Flag-PRL-2 (treated 5 minutes, washed to remove cell free drug) is “more than 24 hours”. The “reversibility of SHP-1 inhibition” value at GST/SHP-1 fusion protein is on record as “irreversible”. Besides, the “effect against recombinant PTP1B in vitro” value in [1] is “partial inhibitory effect”. Further, the “PTPase activity of Flag-PRL-3 immunocomplexes from treated transfectants” value on intracellular Flag-PRL-3 is recorded as “inactivates”. Moreover, the “PTPase activity of Flag-PRL-1 immunocomplexes from treated transfectants” value on intracellular Flag-PRL-1 is listed as “inactivates”. The “inhibition of intracellular PTP1B” value against intracellular PTP1B was “partial inhibition”. Further, the “inhibition of recombinant PRL-1” value on recombinant PRL-1 is “potent inhibitor”. For the same compound, at recombinant PRL-2 (peptide substrate), the “inhibition of recombinant PRL-2” value is “potent inhibitor”. Moreover, on recombinant PRL-2 (washing process / stable complex), the “reversibility of PRL-2 inactivation” value is listed as “irreversible”. In addition, the “IFNα-induced growth inhibition in presence of glucatime” value in experiment [2] (IFNα 500 U/ml) is recorded as “augments”. The “growth of human cancer cell lines in culture” value in [2] (MTT) is on record as “inhibits the growth”. In addition, the “inhibition of recombinant PRL-3” value at recombinant PRL-3 is listed as “potent inhibitor”.

The values are drawn from patent publication US7744867B2, “PTPase inhibitors and method of using same” (The Cleveland Clinic Foundation, priority 2001, dated 2010).
